Assay results reported in US20200206233A1 (INTEGRAL BIOSCIENCES PRIVATE LIMITED, priority 2018, published 2020).

Biological target: T1, IDH1 mutant (R132H) (Homo sapiens, UniProt O75874, R132H)
T1 construct: purchased BPS Bioscience 71099-2
Assay: Mutant IDH1-R132H Fluorescence Assay (Resazurin based)
Assay type: biochemical
Details: 10 nM IDH1 R132H, 4 mM α-ketoglutarate, NADPH, 1.5 h at room temperature
Procedure: IC50 values of compounds against IDH1 mutant (R132H) was determined by Resazurin based Fluorescence assay. Assays were performed in Buffer (25 mM Tris HCl, 150 mM NaCl, 10 mM MgCl2, 0.03% BSA, 2 mM 1-mercaptoethanol) where total reaction volume was 12.5 μL in low-volume 384-well plates (Cat #4511, Corning). Serially diluted compounds (3-fold) were incubated with cocktail of α-ketoglutarate (4 mM; Cat #75892-25G, Sigma), NADPH ([…]; Cat # N1630-100MG, Sigma) and buffer for 5 min, following IDH1 R132H mutant (10 nM; Cat #71099-2, BPS Bioscience) was added and incubated in dark at room temperature for 1.5 h. After 1.5 h, 6.25 μL detection solution containing Resazurin ([…]; (Cat #62758-13-8, Sigma) and Diaphorase (40 ug/ml; Cat # D2197-300UN, Sigma) in buffer was added and incubated for 15 min. Readings were taken in a Synergy Neo Plate reader (BioTek, Winooski) at single excitation of 540 nm and emission at 590 nm respectively.
The % (percent) activity of test samples was calculated as (Sample−Min)×100/(Max−Min). [Max: DMSO control, complete reaction with enzyme with DMSO and Min: No enzyme with DMSO]. Percent inhibition (100−% activity) was fitted to the “four-parameter logistic model” in XLfit for determination of IC50 values.

T1 sequence (O75874 whole entry R132H): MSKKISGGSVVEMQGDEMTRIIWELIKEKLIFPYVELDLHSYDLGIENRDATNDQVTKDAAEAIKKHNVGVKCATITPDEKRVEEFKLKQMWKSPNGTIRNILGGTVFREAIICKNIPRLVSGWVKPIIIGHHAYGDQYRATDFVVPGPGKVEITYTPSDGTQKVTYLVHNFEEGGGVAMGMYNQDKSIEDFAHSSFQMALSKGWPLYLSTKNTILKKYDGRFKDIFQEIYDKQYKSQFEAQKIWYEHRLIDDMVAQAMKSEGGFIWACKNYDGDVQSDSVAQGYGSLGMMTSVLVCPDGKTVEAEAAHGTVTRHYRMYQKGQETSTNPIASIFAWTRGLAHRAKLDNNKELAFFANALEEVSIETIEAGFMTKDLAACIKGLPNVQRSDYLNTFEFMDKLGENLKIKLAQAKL

| IC50 | Compound |
| --- | --- |
| > 30 µM | Cc1nc(N[C@H](C)c2cc3cc(Cl)ccc3[nH]c2=O)nc(N2C(=O)OC[C@@H]2[C@H](C)F)n1 [Compound 1.60, (R)-3-(4-((R)-1-(6-chloro-2-oxo-1,2-dihydroquinolin-3-yl)ethylamino)-6-methyl-1,3,5-triazin-2-yl)-4-((S)-1-fluoroethyl)oxazolidin-2-one] |
| 21.4 µM | CC[C@H]1COC(=O)N1c1nc(C)nc(N[C@@H](C)c2ccc(CN3CCN(C(C)=O)CC3)cc2)n1 [Compound 1.98, (S)-3-(4-((S)-1-(4-((4-acetylpiperazin-1-yl)methyl)phenyl)ethylamino)-6-methyl-1,3,5-triazin-2-yl)-4-ethyloxazolidin-2-one] |
| 2.65 µM | Cc1nc(N[C@@H](C)c2ccc(Oc3ccccc3)cc2)nc(N2C(=O)OC[C@@H]2C)n1 [Compound 1.65, (S)-4-methyl-3-(4-methyl-6-((S)-1-(4-phenoxyphenyl)ethylamino)-1,3,5-triazin-2-yl)oxazolidin-2-one] |
| 17 µM | CC[C@H]1COC(=O)N1c1nc(C)nc(N[C@H](C)c2ccc(OCc3ccccn3)cc2)n1 [Compound 1.61, (S)-4-ethyl-3-(4-methyl-6-((R)-1-(4-(pyridin-2-ylmethoxy)phenyl)ethylamino)-1,3,5-triazin-2-yl)oxazolidin-2-one] |
| > 30 µM | CC[C@H]1COC(=O)N1c1nc(C)nc(N[C@@H](C)c2ccc(C(=O)Nc3ccccc3)cc2)n1 [Compound 1.103, 4-((S)-1-(4-((S)-4-ethyl-2-oxooxazolidin-3-yl)-6-methyl-1,3,5-triazin-2-ylamino)ethyl)-N-phenylbenzamide] |
| 15.4 µM | CC[C@H]1COC(=O)N1c1nc(C)nc(N[C@@H](C)c2ccc(OCc3ccccc3)cc2)n1 [Compound 1.73, (S)-3-(4-((S)-1-(4-(benzyloxy)phenyl)ethylamino)-6-methyl-1,3,5-triazin-2-yl)-4-ethyloxazolidin-2-one] |
| 2.51 µM | CC[C@H]1COC(=O)N1c1nc(C)nc(NC(C)(C)c2ccc(Oc3ccccc3)cc2)n1 [Compound 1.111, (S)-4-ethyl-3-(4-methyl-6-(2-(4-phenoxyphenyl)propan-2-ylamino)-1,3,5-triazin-2-yl)oxazolidin-2-one] |
| > 30 µM | CC[C@H]1COC(=O)N1c1nc(C)nc(N[C@H](C)c2cc3cc(Cl)ccc3[nH]c2=O)n1 [Compound 1.39, (S)-3-(4-((R)-1-(6-chloro-2-oxo-1,2-dihydroquinolin-3-yl)ethylamino)-6-methyl-1,3,5-triazin-2-yl)-4-ethyloxazolidin-2-one] |
| 2.64 µM | CC[C@H]1COC(=O)N1c1nc(C)nc(N[C@@H](C)c2ccc(Cc3ccccc3)cc2)n1 [Compound 1.95, (S)-3-(4-((S)-1-(4-benzylphenyl)ethylamino)-6-methyl-1,3,5-triazin-2-yl)-4-ethyloxazolidin-2-one] |
| > 30 µM | CC(C)[C@H]1COC(=O)N1c1ncnc(N[C@H](C)c2ccc(Oc3ccccc3)cn2)n1 [Compound 1.18, (S)-4-isopropyl-3-(4-((R)-1-(5-phenoxypyridin-2-yl)ethylamino)-1,3,5-triazin-2-yl)oxazolidin-2-one] |
| > 30 µM | CC(C)[C@H]1COC(=O)N1c1ncnc(N[C@@H](C)c2ccc(N3CCN(C)CC3)cn2)n1 [Compound 1.24, (S)-4-isopropyl-3-(4-((S)-1-(5-(4-methylpiperazin-1-yl)pyridin-2-yl)ethylamino)-1,3,5-triazin-2-yl)oxazolidin-2-one] |
| 1.21 µM | CC[C@H]1COC(=O)N1c1nc(C)nc(N[C@@H](C)c2cc(C)c(-c3ccnc(C(F)(F)F)c3)cn2)n1 [Compound 1.54, (S)-4-ethyl-3-(4-methyl-6-((S)-1-(4-methyl-2′-(trifluoromethyl)-3,4′-bipyridin-6-yl)ethylamino)-1,3,5-triazin-2-yl)oxazolidin-2-one] |
| > 30 µM | CC[C@H]1COC(=O)N1c1nc(C)nc(N[C@@H](C)c2cc3cc(-c4ccc(Cl)cc4)ccc3[nH]c2=O)n1 [Compound 1.106, (S)-3-(4-((S)-1-(6-(4-chlorophenyl)-2-oxo-1,2-dihydroquinolin-3-yl)ethylamino)-6-methyl-1,3,5-triazin-2-yl)-4-ethyloxazolidin-2-one] |
| 2.24 µM | CC[C@H]1COC(=O)N1c1nc(C)nc(N[C@@H](C)c2ccc3c(-c4ccccc4)c[nH]c3c2)n1 [Compound 1.100, (S)-4-ethyl-3-(4-methyl-6-((S)-1-(3-phenyl-1H-indol-6-yl)ethylamino)-1,3,5-triazin-2-yl)oxazolidin-2-one] |
| 1.79 µM | CC[C@H]1COC(=O)N1c1nc(C)nc(N[C@@H](C)c2cc3ccccc3[nH]c2=O)n1 [Compound 1.45, (S)-4-ethyl-3-(4-methyl-6-((S)-1-(2-oxo-1,2-dihydroquinolin-3-yl)ethylamino)-1,3,5-triazin-2-yl)oxazolidin-2-one] |
| 2.44 µM | CC[C@H]1COC(=O)N1c1nc(N[C@@H](C)c2ccc(Oc3ccccc3)cc2)nc(C2CC2)n1 [Compound 1.71, (S)-3-(4-cyclopropyl-6-((S)-1-(4-phenoxyphenyl)ethylamino)-1,3,5-triazin-2-yl)-4-ethyloxazolidin-2-one] |
| > 30 µM | CC(C)[C@H]1COC(=O)N1c1ncnc(N[C@@H](C)c2ccccn2)n1 [Compound 1.30, (S)-4-isopropyl-3-(4-((S)-1-(pyridin-2-yl)ethylamino)-1,3,5-triazin-2-yl)oxazolidin-2-one] |
| 2.07 µM | CC[C@H]1COC(=O)N1c1nc(C)nc(NCc2cc3cc(Cl)ccc3[nH]c2=O)n1 [Compound 1.57, (S)-3-(4-((6-chloro-2-oxo-1,2-dihydroquinolin-3-yl)methylamino)-6-methyl-1,3,5-triazin-2-yl)-4-ethyloxazolidin-2-one] |
| > 30 µM | CC[C@H]1COC(=O)N1c1nc(C)nc(N[C@H](C)c2ccc(OCc3ccccc3)cc2)n1 [Compound 1.72, (S)-3-(4-((R)-1-(4-(benzyloxy)phenyl)ethylamino)-6-methyl-1,3,5-triazin-2-yl)-4-ethyloxazolidin-2-one] |
| 5.95 µM | CC[C@H]1COC(=O)N1c1nc(C)nc(N[C@@H](C)c2ccc(Oc3ccccc3)nc2)n1 [Compound 1.77, (S)-4-ethyl-3-(4-methyl-6-((S)-1-(6-phenoxypyridin-3-yl)ethylamino)-1,3,5-triazin-2-yl)oxazolidin-2-one] |
| > 30 µM | CC[C@H]1COC(=O)N1c1nc(C)nc(N[C@H](C)c2ccc(CN3CCN(C(C)=O)CC3)cc2)n1 [Compound 1.99, (S)-3-(4-((R)-1-(4-((4-acetylpiperazin-1-yl)methyl)phenyl)ethylamino)-6-methyl-1,3,5-triazin-2-yl)-4-ethyloxazolidin-2-one] |
| > 30 µM | CC[C@H]1COC(=O)N1c1nc(C)nc(N[C@H](C)c2ccc(C(=O)Nc3ccccc3)cc2)n1 [Compound 1.102, 4-((R)-1-(4-((S)-4-ethyl-2-oxooxazolidin-3-yl)-6-methyl-1,3,5-triazin-2-ylamino)ethyl)-N-phenylbenzamide] |
| 1.54 µM | CC[C@H]1COC(=O)N1c1nc(C)nc(N[C@@H](C)c2ccc3c(ccn3-c3ccccc3)c2)n1 [Compound 1.90, (S)-4-ethyl-3-(4-methyl-6-((S)-1-(1-phenyl-1H-indol-5-yl)ethylamino)-1,3,5-triazin-2-yl)oxazolidin-2-one] |
| > 30 µM | CC(C)[C@H]1COC(=O)N1c1ncnc(N[C@H](C)c2ccc(N3CCN(C)CC3)cn2)n1 [Compound 1.25, (S)-4-isopropyl-3-(4-((R)-1-(5-(4-methylpiperazin-1-yl)pyridin-2-yl)ethylamino)-1,3,5-triazin-2-yl)oxazolidin-2-one] |
| > 30 µM | CC[C@H]1COC(=O)N1c1nc(C)nc(N[C@H](C)c2ccc(Sc3ccc(F)cc3)cc2)n1 [Compound 1.91, (S)-4-ethyl-3-(4-((R)-1-(4-(4-fluorophenylthio)phenyl)ethylamino)-6-methyl-1,3,5-triazin-2-yl)oxazolidin-2-one] |
| 2.72 µM | CC[C@H]1COC(=O)N1c1nc(C)nc(N[C@H](C)c2ccc(Oc3ccc(F)cc3Br)cc2)n1 [Compound 1.79, (S)-3-(4-((R)-1-(4-(2-bromo-4-fluorophenoxy)phenyl)ethylamino)-6-methyl-1,3,5-triazin-2-yl)-4-ethyloxazolidin-2-one] |
| > 30 µM | CC[C@H]1COC(=O)N1c1nc(C)nc(N[C@H](C)c2cc3cc(C)ccc3[nH]c2=O)n1 [Compound 1.109, (S)-4-ethyl-3-(4-methyl-6-((R)-1-(6-methyl-2-oxo-1,2-dihydroquinolin-3-yl)ethylamino)-1,3,5-triazin-2-yl)oxazolidin-2-one] |
| > 23.3 µM | CC[C@H]1COC(=O)N1c1nc(C)nc(N[C@H](C)c2ccc(Oc3ccccc3)cn2)n1 [Compound 1.76, (S)-4-ethyl-3-(4-methyl-6-((R)-1-(5-phenoxypyridin-2-yl)ethylamino)-1,3,5-triazin-2-yl)oxazolidin-2-one] |
| > 22.9 µM | CC[C@H]1COC(=O)N1c1nc(C)nc(NC(C)c2cn(-c3ccc(Cl)cc3)cn2)n1 (single isomer, unassigned) [Compound 1.51] |
| 3.29 µM | CC[C@H]1COC(=O)N1c1nc(C)nc(N[C@@H](C)c2ccc(OCc3ccccn3)cc2)n1 [Compound 1.62, (S)-4-ethyl-3-(4-methyl-6-((S)-1-(4-(pyridin-2-ylmethoxy)phenyl)ethylamino)-1,3,5-triazin-2-yl)oxazolidin-2-one] |
